Data from patent US8853224B2 (priority 2006, dated 2014).

Each molecule was assayed against Plasmodium falciparum purine nucleoside phosphorylase (PfPNP) (Plasmodium falciparum (isolate 3D7), UniProt Q8I3X4) (assay: biochemical).
Excerpt: For inhibitors without slow-onset properties, fits to the same equation were made, but using initial reaction rates.

Row | SMILES | Kd [µM]
1 | O=c1[nH]cnc2c(CNC[C@@H](O)[C@H](O)CO)c[nH]c12 (racemic) [Example 20.5, 7-(((2RS,3RS)-2,3,4-trihydroxybutylamino)methyl)-3H-pyrrolo[3,2-d]pyrimidin-4(5H)-one] | 32 ± 2
2 | O=c1[nH]cnc2c(CNC[C@H](O)[C@H](O)CO)c[nH]c12 [Example 19.3, 7-(((2S,3R)-2,3,4-trihydroxybutylamino)methyl)-3H-pyrrolo[3,2-d]pyrimidin-4(5H)-one] | 12 ± 2
3 | O=c1[nH]cnc2c(CNCC(CO)CO)c[nH]c12 [Example 8, 7-((3-hydroxy-2-(hydroxymethyl)propylamino)methyl)-3H-pyrrolo[3,2-d]pyrimidin-4(5H)-one] | 0.21 ± 0.05
